Laboratory results: patent US20070178494A1, “Methods for prediction and prognosis of cancer, and monitoring cancer therapy” (priority 2005, published 2007)

What was measured:
VEGF = assay: ELISA of plasma VEGF pre- and post-treatment, Phase III TARGETs study; assay type: in vivo, human; settings: patients with advanced renal cell cancer, after 3 weeks of treatment, p=3.2E-5
[1] = tested on: advanced renal cell cancer; assay: Progression-free survival by baseline VEGF level, Phase III TARGETs study; assay type: in vivo, human; settings: patients receiving sorafenib
Procedure: All analyses were carried out under IRB-approved protocols.
Measures of patient outcome found useful were time to death (TTD) and progression-free survival (PFS) using a Cox regression analysis. Baseline levels of VEGF were determined and changes in the baseline level were determined at week 18 of treatment. The effects observed were adjusted for age, gender, ECOG status or Motzer score. These adjustments were minimal.

CNC(=O)c1cc(Oc2ccc(NC(=O)Nc3ccc(Cl)c(C(F)(F)F)c3)cc2)ccn1 [sorafenib]
change of VEGF levels from baseline (VEGF): increased significantly | difference in PFS between patients with high (>250 pg/mL) or low (<250 pg/mL) baseline VEGF levels [1]: no significant difference
